What was measured:
Kv1.3 potassium channel = molecular target: T1, Kv1.3 potassium channel (Homo sapiens, UniProt P22001); assay: Kv1.3 potassium channel blocker activity, automated whole-cell patch clamp (Patchliner); type: cell-based
T1 construct: expressed in transfected cells
Method in brief: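 IC50 came from Hill-equation fits of peak and AUC currents from the final pulse at each concentration, normalized to compound-free control. Compounds applied consecutively at 30 nM to 100 μM (up to 0.3% DMSO) to Kv1.3-expressing CHO-K1 cells, P/4 leak subtraction. Pulses were +40 mV, 100 ms, from −90 mV holding, at 0.1 Hz on Patchliner.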

hERG channel = molecular target: T2, hERG channel (Homo sapiens, UniProt Q12809); assay: hERG electrophysiology, automated whole-cell patch clamp (Patchliner); type: cell-based
T2 construct: expressed in transfected cells
T2 sequence (Q12809 whole entry): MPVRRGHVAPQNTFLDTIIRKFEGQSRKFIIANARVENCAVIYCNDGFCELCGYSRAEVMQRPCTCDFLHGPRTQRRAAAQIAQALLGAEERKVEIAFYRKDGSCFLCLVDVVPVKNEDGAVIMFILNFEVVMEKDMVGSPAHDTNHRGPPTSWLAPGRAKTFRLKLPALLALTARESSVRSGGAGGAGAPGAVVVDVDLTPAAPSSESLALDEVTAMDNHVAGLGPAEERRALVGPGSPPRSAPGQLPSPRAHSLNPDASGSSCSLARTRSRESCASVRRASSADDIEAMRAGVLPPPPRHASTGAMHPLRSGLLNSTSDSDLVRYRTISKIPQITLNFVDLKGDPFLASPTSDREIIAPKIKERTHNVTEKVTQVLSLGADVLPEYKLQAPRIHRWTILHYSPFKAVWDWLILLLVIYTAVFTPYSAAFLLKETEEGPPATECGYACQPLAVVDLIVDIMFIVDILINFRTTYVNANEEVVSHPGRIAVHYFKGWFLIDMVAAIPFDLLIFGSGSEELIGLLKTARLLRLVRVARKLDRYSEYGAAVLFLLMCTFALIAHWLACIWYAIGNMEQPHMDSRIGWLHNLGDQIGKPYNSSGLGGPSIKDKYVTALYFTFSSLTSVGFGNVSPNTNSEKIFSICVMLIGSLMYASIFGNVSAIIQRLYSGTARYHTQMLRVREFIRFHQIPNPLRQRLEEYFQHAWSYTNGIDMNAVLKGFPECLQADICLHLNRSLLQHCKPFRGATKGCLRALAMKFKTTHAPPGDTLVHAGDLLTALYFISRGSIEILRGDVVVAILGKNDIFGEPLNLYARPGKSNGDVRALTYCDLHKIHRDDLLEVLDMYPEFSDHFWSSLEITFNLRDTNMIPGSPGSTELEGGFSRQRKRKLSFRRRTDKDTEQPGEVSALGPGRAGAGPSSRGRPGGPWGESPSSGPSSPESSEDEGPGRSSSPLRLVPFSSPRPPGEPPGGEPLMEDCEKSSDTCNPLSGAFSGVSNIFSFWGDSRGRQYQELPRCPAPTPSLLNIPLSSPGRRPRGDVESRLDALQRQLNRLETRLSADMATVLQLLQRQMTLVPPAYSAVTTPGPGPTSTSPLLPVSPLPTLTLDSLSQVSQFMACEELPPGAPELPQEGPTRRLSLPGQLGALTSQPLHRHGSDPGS
Method in brief: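 Currents were recorded at 0.3 Hz from −80 mV, stepping to +20 mV then −50 mV (300 ms each), in stably transfected CHO-K1 cells. Concentrations (30 nM–100 μM, up to 0.3% DMSO) were added sequentially without washout. IC50 came from Hill fits of control-normalized AUC/peak of each train's final pulse.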

[1] = CHO-K1 cells stably expressing Kv1.3, 100 ms pulses from -90 mV to +40 mV, 0.1 Hz
[2] = CHO-K1 cells stably expressing hERG, +20 mV 300 ms, -50 mV 300 ms tail current, 0.3 Hz
[3] = Kv1.3 potassium channel, whole-cell patch clamp
[4] = hERG channel, whole-cell patch clamp

T1 sequence (P22001 whole entry): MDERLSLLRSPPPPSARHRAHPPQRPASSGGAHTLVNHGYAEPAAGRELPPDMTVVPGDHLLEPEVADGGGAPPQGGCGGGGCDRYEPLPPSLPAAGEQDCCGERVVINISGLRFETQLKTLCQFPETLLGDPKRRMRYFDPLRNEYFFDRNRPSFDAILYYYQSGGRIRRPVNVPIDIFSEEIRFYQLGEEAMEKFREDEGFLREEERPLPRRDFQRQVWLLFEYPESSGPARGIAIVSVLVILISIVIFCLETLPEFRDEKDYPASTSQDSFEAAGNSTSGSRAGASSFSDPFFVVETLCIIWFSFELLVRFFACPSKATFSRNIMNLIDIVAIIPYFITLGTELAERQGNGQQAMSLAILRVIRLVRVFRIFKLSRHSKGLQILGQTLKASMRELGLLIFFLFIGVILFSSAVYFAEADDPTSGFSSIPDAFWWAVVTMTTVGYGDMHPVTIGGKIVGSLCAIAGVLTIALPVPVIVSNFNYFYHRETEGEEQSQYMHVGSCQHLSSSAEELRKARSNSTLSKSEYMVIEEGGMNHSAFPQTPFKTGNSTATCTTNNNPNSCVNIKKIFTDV

Row | Compound | IC50 (Kv1.3 potassium channel; [1]) [µM] | IC50 (Kv1.3 potassium channel; [3]) [µM] | IC50 (hERG channel; [2]) [µM] | IC50 (hERG channel; [4]) [µM]
1 | O=C1CNC[C@@H]2CC(c3c(O)ccc(Cl)c3Cl)CN12 (stereo partly drawn) [Compound 33, (8aS)-7-(2,3-dichloro-6-hydroxyphenyl)-hexahydro-1H-pyrrolo[1,2-a]pyrazin-4-one trifluoroacetic acid] | < 1 |  | < 30 | 
2 | O=C(CO)N1CCC(=O)N2C[C@@H](c3c(O)ccc(Cl)c3Cl)C[C@H]2C1 [Compound 18, (8R,9aS)-8-(2,3-dichloro-6-hydroxyphenyl)-2-(2-hydroxyacetyl)-hexahydro-1H-pyrrolo[1,2-a][1,4]diazepin-5-one] | < 1 |  | > 30 | 
3 | CC[C@H](O)C(=O)N1CC(=O)N2CC[C@@H](c3c(O)ccc(Cl)c3Cl)C[C@H]2C1 [Compound 9, (8R,9aS)-8-(2,3-dichloro-6-hydroxyphenyl)-2-[(2S)-2-hydroxybutanoyl]-hexahydro-1H-pyrido[1,2-a]pyrazin-4-one] | < 1 |  | > 30 | 
4 | O=C1C[C@@H](N2CC[C@@H](O)C2)C[C@@H]2C[C@H](c3c(O)ccc(Cl)c3Cl)CN12 (single isomer, unassigned) [Compound 192] |  | < 1 |  | > 30
5 | O=C1CN(CC2(O)CNC2)C[C@@H]2C[C@H](c3c(O)ccc(Cl)c3Cl)CN12 [Compound 157, (7R,8aS)-7-(2,3-dichloro-6-hydroxyphenyl)-2-[(3-hydroxyazetidin-3-yl)methyl]-hexahydropyrrolo[1,2-a]pyrazin-4-one;] |  | < 1 |  | > 30
6 | C[C@H](O)CN1CC(=O)N2C[C@@H](c3c(O)ccc(Cl)c3Cl)C[C@H]2C1 (single isomer, unassigned; isomer 2) [Compound 151] |  | < 1 |  | > 30
7 | O=C1C[C@H](O)[C@H](O)[C@@H]2C[C@H](c3c(O)ccc(Cl)c3Cl)CN12 (relative stereo) [Compound 225, (7S,8R)-rel-(2R, 8aS)-2-(2,3-dichloro-6-hydroxyphenyl)-7,8-dihydroxy-hexahydro-1H-indolizin-5-one] |  | < 1 |  | > 30
8 | C[C@H](O)C(=O)N1CC(=O)N2CC[C@@H](c3c(O)ccc(Cl)c3Cl)C[C@H]2C1 [Compound 49, (8R,9aS)-8-(2,3-dichloro-6-hydroxyphenyl)-2-[(2S)-2-hydroxypropanoyl]-hexahydro-1H-pyrido[1,2-a]pyrazin-4-one] | < 1 |  | > 30 | 
9 | O=C1O[C@H](CO)[C@@H]2C[C@H](c3c(O)ccc(Cl)c3Cl)CN12 (single isomer, unassigned) [Compound 254] |  | < 1 |  | > 30
10 | O=C1CN([C@H]2C[C@](O)(CO)C2)C[C@@H]2C[C@H](c3c(O)ccc(Cl)c3Cl)CN12 (single isomer, unassigned; isomer 1) [Compound 163] |  | < 1 |  | > 30
11 | CC[C@@H](O)C(=O)N1CC(=O)N2CC[C@@H](c3c(O)ccc(Cl)c3Cl)C[C@H]2C1 [Compound 21, (8R,9aS)-8-(2,3-dichloro-6-hydroxyphenyl)-2-[(2R)-2-hydroxybutanoyl]-hexahydro-1H-pyrido[1,2-a]pyrazin-4-one] | < 1 |  | < 30 | 
12 | O=C1O[C@@H](CO)[C@@H]2C[C@H](c3c(O)ccc(Cl)c3Cl)CN12 (single isomer, unassigned) [Compound 253] |  | < 1 |  | > 30

Continued, in another order:

Row | IC50 (Kv1.3 potassium channel; [1]) [µM] | IC50 (Kv1.3 potassium channel; [3]) [µM] | Compound | IC50 (hERG channel; [2]) [µM] | IC50 (hERG channel; [4]) [µM]
13 |  | < 1 | O=C1O[C@H](CN2CCNCC2)[C@@H]2C[C@H](c3c(O)ccc(Cl)c3Cl)CN12 (single isomer, unassigned) [Compound 280] |  | > 30
14 |  | < 1 | O=C1C[C@@H](N2CC(O)C2)C[C@@H]2C[C@H](c3c(O)ccc(Cl)c3Cl)CN12 (single isomer, unassigned) [Compound 196] |  | > 30
15 |  | < 1 | NC[C@@]1(O)CC(=O)N2C[C@@H](c3c(O)ccc(Cl)c3Cl)C[C@H]2C1 (single isomer, unassigned) [Compound 218] |  | > 30
16 |  | < 1 | NC[C@]1(O)CC(=O)N2C[C@@H](c3c(O)ccc(Cl)c3Cl)C[C@H]2C1 (single isomer, unassigned) [Compound 219] |  | > 30
17 |  | < 1 | CN1CC(N2CC(=O)N3C[C@@H](c4c(O)ccc(Cl)c4Cl)C[C@H]3C2)C1 [Compound 132, (7R,8aS)-7-(2,3-dichloro-6-hydroxyphenyl)-2-(1-methylazetidin-3-yl)-hexahydropyrrolo [1,2-a]pyrazin-4-one] |  | < 30
18 |  | < 1 | O=C1C[C@H](CN2CC(O)C2)C[C@@H]2C[C@H](c3c(O)ccc(Cl)c3Cl)CN12 (single isomer, unassigned) [Compound 243] |  | < 30
19 |  | < 1 | O=C1CN([C@@H]2CCNC2)C[C@@H]2C[C@H](c3c(O)ccc(Cl)c3Cl)CN12 [Compound 143, (7R,8aS)-7-(2,3-dichloro-6-hydroxyphenyl)-2-[(3R)-pyrrolidin-3-yl]-hexahydropyrrolo [1,2-a]pyrazin-4-one] |  | > 30
20 |  | < 1 | CN(C)[C@@H]1CC(=O)N2C[C@@H](c3c(O)ccc(Cl)c3Cl)C[C@H]2C1 (single isomer, unassigned) [Compound 200] |  | < 10
21 |  | < 1 | O=C1C[C@@H](N2CC(=O)N3C[C@@H](c4c(O)ccc(Cl)c4Cl)C[C@H]3C2)CN1 (single isomer, unassigned; isomer 1) [Compound 160] |  | > 30
22 |  | < 1 | O=C1CN([C@@H]2C[C@@H](O)[C@@H](O)C2)C[C@@H]2C[C@H](c3c(O)ccc(Cl)c3Cl)CN12 (relative stereo) [Compound 131, (7R,8aS)-7-(2,3-dichloro-6-hydroxyphenyl)-2-[(1S,3R,4S)-rel-3,4-dihydroxycyclopentyl]-hexahydropyrrolo [1,2-a]pyrazin-4-one] |  | > 30
23 |  | < 1 | CC(CO)(CO)N1CC(=O)N2C[C@@H](c3c(O)ccc(Cl)c3Cl)C[C@H]2C1 [Compound 162, (7R,8aS)-7-(2,3-dichloro-6-hydroxyphenyl)-2-(1,3-dihydroxy-2-methylpropan-2-yl)-hexahydropyrrolo[1,2-a]pyrazin-4-one] |  | > 30

From patent US20230049231A1 (priority 2019, published 2023)
